Columns and labels:
[1] = target: T1, Cholesterol 24-hydroxylase (CH24H) (Mus musculus, UniProt Q9WVK8); experiment: [3H]T-008 saturation radioligand binding; autoradiography in WT vs CH24H KO mouse brain sections
T1 construct: gene Cyp46a1

[2] = target: T2, Cholesterol 24-hydroxylase (CH24H) (Macaca mulatta, UniProt A0A5F7ZPE8); experiment: in vivo PET enzyme occupancy, displacement of […]T-008 in rhesus brain
T2 construct: gene CYP46A1
T2 sequence (A0A5F7ZPE8 1-500): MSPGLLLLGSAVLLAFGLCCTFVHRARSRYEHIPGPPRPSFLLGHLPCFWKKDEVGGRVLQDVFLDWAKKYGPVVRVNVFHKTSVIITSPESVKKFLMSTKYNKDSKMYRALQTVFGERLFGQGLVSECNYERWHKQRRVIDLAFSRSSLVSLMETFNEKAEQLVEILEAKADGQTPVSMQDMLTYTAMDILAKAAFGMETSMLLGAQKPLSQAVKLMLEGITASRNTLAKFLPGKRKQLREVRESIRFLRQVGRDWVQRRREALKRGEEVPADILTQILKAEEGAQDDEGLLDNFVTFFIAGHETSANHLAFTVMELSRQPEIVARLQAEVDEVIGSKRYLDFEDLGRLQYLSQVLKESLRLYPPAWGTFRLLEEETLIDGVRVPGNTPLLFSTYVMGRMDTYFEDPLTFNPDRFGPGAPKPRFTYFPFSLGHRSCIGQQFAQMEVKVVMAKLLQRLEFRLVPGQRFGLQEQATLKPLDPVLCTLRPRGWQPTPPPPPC

T1 sequence (Q9WVK8 whole entry): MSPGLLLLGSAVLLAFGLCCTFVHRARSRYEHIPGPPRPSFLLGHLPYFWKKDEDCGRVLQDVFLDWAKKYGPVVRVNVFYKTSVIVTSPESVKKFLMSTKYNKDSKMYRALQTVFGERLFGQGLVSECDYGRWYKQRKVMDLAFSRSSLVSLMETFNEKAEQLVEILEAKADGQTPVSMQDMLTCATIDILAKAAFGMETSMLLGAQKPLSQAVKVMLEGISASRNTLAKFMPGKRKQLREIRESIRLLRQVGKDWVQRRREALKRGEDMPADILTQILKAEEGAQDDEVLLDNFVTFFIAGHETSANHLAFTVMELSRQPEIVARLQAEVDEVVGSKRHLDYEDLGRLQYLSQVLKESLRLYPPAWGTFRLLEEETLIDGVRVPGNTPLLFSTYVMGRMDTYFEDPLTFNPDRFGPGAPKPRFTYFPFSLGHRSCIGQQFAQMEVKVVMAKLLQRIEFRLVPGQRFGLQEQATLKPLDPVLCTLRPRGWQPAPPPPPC

Kd [1] [nM] | SMILES | EC50 [2] [nM]
14 ± 1 | O=C(C1CCN(c2cncnc2-c2ccc(F)cc2)CC1)N1CC(F)C1 [T-008, (3-fluoroazetidin-1-yl){1-[4-(4-fluorophenyl)pyrimidin-5-yl]piperidin-4-yl}methanone] | 
 | O=C(c1cccnc1-c1ccncc1)N1CCC(O)(Cc2ccccc2)CC1 [soticlestat, (4-benzyl-4-hydroxypiperidin-1-yl)(2,4′-bipyridin-3-yl) methanone] | 3.39
